Measured values published in patent US9308244B2, “Combination therapy using active immunotherapy” (immatics Biotechnologies GmbH, priority 2007, dated 2016).
“Also recorded” adds a separate entry of the source.

How the values were obtained:
[1] = system: primary clear cell renal cell carcinoma (ccRCC); experiment: mRNA expression in primary ccRCC tumor tissue of a patient treated with sorafenib before surgery; assay type: in vivo, human
Method: mRNA expression was measured as described in 1.1 except that mRNA from 20 primary clear cell renal cell carcinoma (ccRCC) samples of patients not treated with TKIs and 1 locally recurring ccRCC tumor sample of a patient having received sorafenib treatment (800 mg Nexavar™ per day starting 35 days before and stopping 2 days before surgery) previous to surgery were included in this analysis.
Tumor tissue specimens were snap-frozen in liquid nitrogen immediately after surgery and later homogenized with mortar and pestle under liquid nitrogen. Total RNA was prepared from these samples using TRIzol (Invitrogen) or TRI Reagent (Fermentas) followed by a cleanup with RNeasy (QIAGEN); both methods were performed according to the manufacturers' protocols.
Gene expression analysis of the tumor samples was performed by Affymetrix Human Genome (HG) U133A or HG-U133 Plus 2.0 oligonucleotide microarrays (Affymetrix, Santa Clara, Calif., USA). A normal reference kidney sample was hybridized to both array types to achieve direct comparability of all samples.
Briefly, double-stranded cDNA was synthesized from 5-8 μg of total RNA, using SuperScript RTII (Invitrogen) and the oligo-dT-T7 primer (MWG Biotech, Ebersberg, Germany) as described in the manual. […] Pairwise comparisons were calculated using the respective normal reference kidney array as baseline. […] Relative expression values were calculated from the signal log ratios given by the software and the normal kidney sample was arbitrarily set to 1.0.

[2] = system: A498 tumor cells; settings: A498, 24 h; 13 μM sorafenib or 250 nM sunitinib; normal medium control = 100%
[3] = system: C57BL/6 T cells; experiment: Mouse mixed lymphocyte reaction (CFSE-labeled C57BL/6 spleen cells vs irradiated BALB/c splenocytes); assay type: cell-based; settings: for Cell morphology in flow cytometry (putatively toxic effects): 13 μM sorafenib
Method: CFSE-labeled spleen cells from C57BL/6 (H2-b) mice were co-cultured with irradiated splenocytes from BALB/c (H2-d) mice, resulting in the strong allogenic response and proliferation of the C57BL/6 T cells against H2-d MHC molecules. The proliferation of the T cells results in a diminished CFSE staining of the divided cells. Percentage of divided cells and their number of divisions can be analyzed by flow cytometry.
Spleen cells were prepared from 1 C57BL/6 mouse and 1 BALB/c mouse (Harlan Winkelmann GmbH, Borchen, Germany). BALB/c cells were irradiated with 33 Gy. Effectors (C57BL/6) were adjusted to 20 Mio cells/ml. A 2 mM 5(6)-Carboxyfluorescindiacetate-N-succinimidylester (CFSE, Fluka, Buchs, Switzerland) solution in PBS was freshly prepared from a 10 mM DMSO stock solution. The cell suspension was mixed 1:1 with the CFSE solution. After incubation at 37° C. for 4 min, reaction was stopped by addition of fetal calf serum (Biochrom, Berlin, Germany), and free CFSE was washed out. 2×10^5 stimulator cells (BALB/c) were plated into cavities of a 96-well round-bottom plate. 1×10^5 or 2×10^5 CFSE-labeled effector cells and tyrosine kinase inhibitors at two different concentrations were added. Appropriate positive and negative controls were included. All cultures were in 200 μl T-cell medium with 0.1% (v/v) DMSO for 5 or 7 days without further medium change. Thereafter, cells were stained with fluorescently labelled anti-CD4-PerCP and anti-CD8-FITC antibodies (both BD Biosciences, Heidelberg, Germany) and analyzed by flow cytometry.
The experiment described above was repeated with the exception that a 96-well flat-bottom plate was used for mixed lymphocyte reactions (MLRs), a syngenic control with irradiated C57BL/6 cells was included, more concentrations of inhibitors were assessed, and all groups were analyzed in triplicates.
During cultivation, half of the medium was replaced with fresh appropriate medium supplemented with final concentrations of tyrosine kinase inhibitors every day, and proliferation was analyzed at day 7 only. Additionally cells were stained for H2-Kb to clearly identify effector cells in a further dimension.

[4] = RCC of one patient, 800 mg Nexavar per day from 35 to 2 days before surgery, normal kidney = 1.0
[5] = RCC of one patient, 800 mg Nexavar per day from 35 to 2 days before surgery, normal kidney = 1.0, listed as sorafenib

CNC(=O)c1cc(Oc2ccc(NC(=O)Nc3ccc(Cl)c(C(F)(F)F)c3)cc2)ccn1 [Sorafenib, 4-(4-{3-[4-Chloro-3-(trifluoromethyl)phenyl]ureido}phenoxy)-N-methylpyrid-ine-2-carboxamide]
Expression relative to normal reference kidney: ADFP [1, 4]: 5.7 | Expression relative to normal reference kidney: APOL1 [1, 4]: 19.7 | Expression relative to normal reference kidney: CCND1 [1, 4]: 3.2 | Expression relative to normal reference kidney: GUCY1A3 [1, 4]: 0.5 | Expression relative to normal reference kidney: HLA-A [1, 4]: 0.9 | Expression relative to normal reference kidney: HLA-B [1, 4]: 2.1 | Expression relative to normal reference kidney: HLA-C [1, 4]: 1.0 | Expression relative to normal reference kidney: HLA-DPB1 [1, 4]: 4.0 | Expression relative to normal reference kidney: HLA-DQB1 [1, 4]: 168.9 | Expression relative to normal reference kidney: HLA-DRB1 [1, 4]: 2.8 | Expression relative to normal reference kidney: KIAA0367 [1, 4]: 1.2 | Expression relative to normal reference kidney: MET [1, 4]: 9.8 | Expression relative to normal reference kidney: MMP7 [1, 4]: 6.1 | Expression relative to normal reference kidney: MUC1 [1, 4]: 0.3 | Expression relative to normal reference kidney: PSMB8 [1, 4]: 3.5 | Expression relative to normal reference kidney: PSMB9 [1, 4]: 5.7 | Expression relative to normal reference kidney: RGS5 [1, 4]: 1.5 | Expression relative to normal reference kidney: TAP1 [1, 4]: 2.1 | Expression relative to normal reference kidney: GUCY1A3 [1, 5]: at the lower boundary of the range | Expression relative to normal reference kidney: RGS5 [1, 5]: at the lower boundary of the range | Expression profile of tumor associated antigens or their HLA presentation in vivo vs range of untreated ccRCC (in words) ([1]; one sorafenib-treated patient vs 20 untreated ccRCC, range = mean ± one standard deviation): lie within this range for most antigens; also recorded: do not provide any evidence for a potential influence | % Expression relative to control: ADFP [2]: 100% | % Expression relative to control: APOL1 [2]: 71% | % Expression relative to control: CCND1 [2]: 81% | % Expression relative to control: GUCY1A3 [2]: 44% | % Expression relative to control: HLA-A [2]: 100% | % Expression relative to control: HLA-B [2]: 87% | % Expression relative to control: HLA-C [2]: 87% | % Expression relative to control: MET [2]: 62% | % Expression relative to control: MMP7 [2]: 25% | % Expression relative to control: MUC1 [2]: 107% | % Expression relative to control: PSMB8 [2]: 87% | % Expression relative to control: PSMB9 [2]: 123% | % Expression relative to control: TAP1 [2]: 123% | CD4+ T-cell proliferation in response to allogenic stimuli (summary) [3]: increased | CD8+ T-cell proliferation in response to allogenic stimuli (summary) [3]: slightly decreased; also recorded: slightly reduced | CD8 proliferation ([3]; first experiment, 1.3 μM sorafenib): only slightly affected | Cell morphology in flow cytometry (putatively toxic effects) ([3]; first experiment): different morphology | Cell morphology in flow cytometry (putatively toxic effects) ([3]; first experiment, listed as sorafenib): clear change in morphology | Level inducing toxic effects (dramatically changed morphology of cells in flow cytometry) ([3]; second experiment): ≥ 6.5 μM | Cell morphology (toxic effects of the drug) ([3]; second experiment, 6.5 or 13 μM Sorafenib): severe changes in morphology | CD8+ proliferation ([3]; second experiment, day 7): slight decrease | Proliferation of CD4+ cells ([3]; second experiment, day 7, 1.6 μM sorafenib): significant increase | Drug-related toxicity for cells in mixed lymphocyte reactions (summary) ([3]; sorafenib: at concentration near the steady-state plasma level of treated patients): toxic
